These results are taken from patent publication US20100022568A1, “ENDOTHELIN RECEPTOR ANTAGONISTS FOR EARLY STAGE IDIOPATHIC PULMONARY FIBROSIS” (Actelion Pharmaceeuticals Ltd., priority 2006, published 2010).

The subject of assay [1] is Swiss 3T3 mouse embryonic fibroblasts. Nature of the assay: cells. Here is the method: Experiments were performed on the mouse embryonic fibroblast cell line Swiss 3T3 (Deutsche Sammlung fur Mikroorganismen und Zellen, DSMZ ACC 173). Cells were starved for 24 h in serum-free medium or medium containing 0.5% serum followed by a 24 h incubation with endothelin-1 at a concentration giving approximately 50% or preferably 80% of its maximal efficacy, in presence either of vehicle or of an antagonist at increasing concentrations or an antagonist in combination with Pirfenidone.
Potential cytotoxic effects are excluded by assessing fibroblast proliferation using the MTS reagent (21). Collagen neo-synthesis by fibroblasts is assessed by measuring ^3H-proline incorporation (22).
Using a concentration of ET-1 of 1 nM (EC80), the below mentioned endothelin receptor antagonists were analyzed for antagonistic activity on ET-1-induced collagen neo-synthesis.

The next assay has as its system rat mesangial cells. The following applies: cited from earlier work.
For a further assay, the system named is cell cultures. Conditions: cited from earlier work.
Assay [2] concerns various animal models of fibrosis. Conditions: cited from earlier work.
A further assay concerns human fibroblasts. The following applies: cited from earlier work.
The next assay relates to patients with IPF. Nature of the assay: BUILD-1 clinical study (phase II/III, placebo-controlled) in IPF patients. In kind it is in vivo, human. The source says:
BUILD 1 study was a multicentric, randomized, double-blind, placebo-controlled, phase II/III study in IPF patients. […] Treatment failure was defined either as worsening of PFTs or the occurrence of an acute decompensation of IPF. PFT worsening was defined as 2 out of the following 3 criteria • Decrease from baseline ≧10% in Forced vital capacity (FVC) • Decrease from baseline ≧15% in diffusion capacity for carbon monoxide (DLCO). • Decrease from baseline ≧4% in O2 saturation (blood gas) at rest or increase from baseline ≧8 mmHg in alveolar capillary O2 gradient (A-a PO2).
Main inclusion criteria: proven IPF diagnosis <3 years duration, either via a surgical lung biopsy or when not done according to the ATS/ERS consensus criteria (see above). The main inclusion criteria were the presence of FVC ≧50% of predicted value and DLCO ≧30% of predicted value.
The planned treatment period 1 was 12 months. Patients were evaluated at regular interval up to End-of-Period 1 (Month 12 months) and up to the End-of-Study i.e. when the last patient has his/her last visit. The 6MWT and pulmonary function tests were evaluated at each visit.
The analyses were run by a single radiologist who was blinded to the group allocation. Each patient CT was scored for honeycomb as well as ground-glass from the 3 zones of each lung namely upper mid and lower zone. Increment for HC and ground-glass was rounded to the upper 5%.

The test system of assay [3] is norepinephrine-induced aortic remodeling and fibrosis. Conditions: cited from earlier work.
Another assay relates to diabetic rat kidney. The following applies: cited from earlier work.
[4] abbreviates: Mus musculus, Swiss-3T3, read-out: IC50 on ET-1-induced collagen neo-synthesis in 3T3 fibroblasts.
The mark [5] stands for this setting: patients with surgical lung biopsy, N = 49.

Entries after “also recorded” stand apart in the source; their conditions may differ. Like-named read-outs stand apart in the source and are kept apart here. Square brackets hold non-standard residues; d marks the D form. Peptide text beside a SMILES is read from it.

In general, IC50 refers to the concentration needed to halve the response being measured. On to `COC(c1ccccc1)(c1ccccc1)[C@H](Oc1nc(C)cc(C)n1)C(=O)O` [Ambrisentan], for which the IC50 in assay [1] (setting [4]) was 0.079 µM.
Turning to `COc1ccccc1Oc1c(NS(=O)(=O)c2ccc(C)cn2)nc(-c2ccncc2)nc1OC` [Avosentan], the concentration for half-maximal inhibition (IC50) in assay [1] (setting [4]) was 0.33 µM.
As for `CC(C)C[C@@H]1NC(=O)[C@@H](C(C)C)NC(=O)[C@@H]2CCCN2C(=O)[C@@H](CC(=O)O)NC(=O)[C@@H](Cc2c[nH]c3ccccc23)NC1=O` [BQ-123] (cyclo(L[dW][dD]P[dV])), the “Fibronectin synthesis induced by ET-1 or angiotensin II” value in the assay with rat mesangial cells is recorded as “decreased”.
Take `COc1ccccc1Oc1c(NS(=O)(=O)c2ccc(C(C)(C)C)cc2)nc(-c2ncccn2)nc1OCCO` [Bosentan]: the IC50 in assay [1] (setting [4]) is 0.214 µM. The “Effect on ET-1-induced collagen synthesis” value in assay [1] (bosentan 1 μM alone, 24 h) is reported as “reverses ET-1 -induced collagen synthesis to baseline”. In addition, in the assay with cell cultures, the Collagen synthesis result is reported as “decreases”, the Collagenase expression result was “increases”, the Extracellular matrix deposition result is listed as “inhibits” and the NF-κB expression result is “reduces”. In assay [2], the “Anti-fibrotic activity in vivo” value is recorded as “potent anti-fibrotic agent”. Also, in the assay on human fibroblasts (cell cultures), the “Ability to contract a collagen matrix” value is “reduced” and the “Matrix metalloprotease-1 (collagenase) production” value is “increased”. The “Fibroblast proliferation induced by ET-1” value in the assay with human fibroblasts (human fibroblasts) is listed as “attenuated”. Moreover, the “Secondary endpoints related to death or disease worsening” value in the assay with patients with IPF (BUILD-1, IPF patients) was “showed efficacy”. For the same compound, the “PFT score: occurrence of death or treatment failure at End-of-Period 1” value in the assay on patients with IPF (all treated (n=71 bosentan), placebo 36.1%) amounted to 22.5%. The “Primary endpoint: exercise capacity (6MWT) at End-of-Period 1” value with patients with IPF (all treated, bosentan target 125 mg b.i.d., 12 months) is listed as “did not show an effect; also recorded: did not show improvement”. In the assay with patients with IPF (setting [5]), the “PFTs scores at end of period 1: Improved (number of patients)” value worked out at 2 and the “PFTs scores at end of period 1: Worsened (number of patients)” value is given as 6. For the same compound, the “PFTs scores at end of period 1: Improved (percent of patients)” value in the assay with patients with IPF (patients with surgical lung biopsy, N = 49, 95% CL 0.5%, 14.0%, p 0.2424) was 4.1%. The “PFTs scores at end of period 1: Worsened (percent of patients)” value in the assay with patients with IPF (patients with surgical lung biopsy, N = 49, 95% CL 4.6%, 24.8%) was 12.2%. For the same compound, the “Prevention of clinical worsening in IPF patients with early disease with low or no honeycomb on HRCT lung scans” value in the assay with patients with IPF (post hoc analysis of BUILD 1 HRCT scans) is given as “mainly effective”.
In the case of `CCCNS(=O)(=O)Nc1ncnc(OCCOc2ncc(Br)cn2)c1-c1ccc(Br)cc1` [Compound 1, propyl-sulfamic acid {5-(4-bromo-phenyl)-6-[2-(5-bromo-pyrimidin-2-yloxy)-ethoxy]-pyrimidine-4-yl}-amide], the IC50 in assay [1] (setting [4]) turned out to be 0.114 µM.
For the compound `COc1cc(OC)nc(O[C@H](C(=O)O)C(OC)(c2ccccc2)c2ccccc2)n1` [Darusentan], in assay [1] (setting [4]), the IC50 came to 0.221 µM. In assay [3], the Accumulation of collagen result is on record as “decreased”.
In the case of `CC[C@H](C)[C@H](NC(=O)[C@H](CC(=O)O)NC(=O)[C@H](CC(C)C)NC(=O)[C@H](Cc1c[nH]cn1)NC(=O)[C@@H]1CSSC[C@H](N)C(=O)N[C@@H](CO)C(=O)N[C@H]2CSSC[C@H](NC(=O)[C@H](CCC(=O)O)NC(=O)[C@H](CCCCN)NC(=O)[C@H](CC(=O)O)NC(=O)[C@H](CCSC)NC(=O)[C@H](CC(C)C)NC(=O)[C@H](CO)NC(=O)[C@H](CO)NC2=O)C(=O)N[C@@H](C(C)C)C(=O)N[C@@H](Cc2ccc(O)cc2)C(=O)N[C@@H](Cc2ccccc2)C(=O)N1)C(=O)N[C@H](C(=O)N[C@@H](Cc1c[nH]c2ccccc12)C(=O)O)[C@@H](C)CC` [ET-1, endothelin-1], the EC50 in assay [1] (read-out: EC50 (concentration of ET-1 giving 50% of maximal effect) on collagen neo-synthesis, Swiss 3T3 fibroblasts, 24 h incubation) stood at 0.00024 µM.
As for `CC(C)C[C@H](NC(=O)N1CCCCCC1)C(=O)N[C@H](Cc1cn(C)c2ccccc12)C(=O)N[C@H](Cc1ccccn1)C(=O)O` [FR1 39317], the “Expression of collagen, laminin and TGF-β mRNA” value with diabetic rat kidney is on record as “attenuated”.
`Cc1cc2c(cc1CC(=O)c1sccc1S(=O)(=O)Nc1onc(C)c1Cl)OCO2` [Sitaxsentan]: the IC50 in assay [1] (setting [4]) came out at 0.369 µM.
Turning to `CC(=O)c1cc(C)cc(C)c1NC(=O)c1sccc1S(=O)(=O)Nc1onc(C)c1C` [TBC3711], in assay [1] (read-out: IC50 on ET-1-induced collagen neo-synthesis in 3T3 fibroblasts, ET-1 1 nM (EC80), n >= 2), the IC50 came to 0.059 µM.
In the case of `Cc1ccc(=O)n(-c2ccccc2)c1` [pirfenidone], the inhibition at 1000 µM in assay [1] (Mus musculus, Swiss-3T3, 24 h, read-out: Inhibitory effect on collagen neo-synthesis) was found to be 55%.
